ChEMBL document CHEMBL4680149, “Biological evaluation and chemoproteomics reveal potential antibacterial targets of a cajaninstilbene-acid analogue” (Eur J Med Chem, 2020)
Values after ≈ are worked out from the molar mass of the structure shown. Active and inactive are the calls of the source. No cut-off for these calls is given here.

Key:
Staphylococcus aureus [1] = assay: Inhibition of PG biosynthesis in Staphylococcus aureus assessed as fold change in MprF gene expression at 4 ug/ml incubated for 1 hr by qRT-PCR analysis relative to control; assay type: functional; details: dose 4.0 µg/ml
RAW264.7 = assay: Cytotoxicity against mouse RAW264.7 cells assessed as reduction in cell viability incubated for 48 hrs by MTT assay; assay type: cell-based; details: RAW264.7, 48 h
Staphylococcus aureus [2] = assay: Inhibition of PG biosynthesis in Staphylococcus aureus assessed as fold change in LtaS gene expression at 4 ug/ml incubated for 1 hr by qRT-PCR analysis relative to control; assay type: functional; details: dose 4.0 µg/ml
Staphylococcus aureus [3] = assay: Inhibition of PG biosynthesis in Staphylococcus aureus assessed as fold change in CdsA gene expression at 4 ug/ml incubated for 1 hr by qRT-PCR analysis relative to control; assay type: functional; details: dose 4.0 µg/ml
Cell membrane [4] = assay: Induction of cell membrane depolarization in Staphylococcus aureus ATCC 25923 assessed as reduction in fluorescence intensity at 0.5 to 1 times MIC measured upto 90 mins by DiOC5 dye based flow cytometric analysis; assay type: subcellular; details: time min <=90
Staphylococcus aureus [5] = assay: Bactericidal activity against Staphylococcus aureus ATCC 25923 assessed as reduction in bacterial colony formation at 2X MIC incubated for 2 hrs by colony counting method; assay type: functional, organism-based
Cell membrane [6] = assay: Induction of cell membrane permeabilization in Staphylococcus aureus ATCC 25923 assessed as increase in nucleic acid leakage by measuring increase in absorbance at 0.5 to 2X MIC measured every 30 mins for 5 hrs by spectrophotometry; assay type: subcellular
Staphylococcus aureus [7] = assay: Inhibition of PG biosynthesis in Staphylococcus aureus assessed as fold change in Cls gene expression at 4 ug/ml incubated for 1 hr by qRT-PCR analysis relative to control; assay type: functional; details: dose 4.0 µg/ml
Cell membrane [8] = assay: Induction of cell membrane permeabilization in methicillin resistant Staphylococcus aureus ATCC 43300 assessed as increase in nucleic acid leakage by measuring increase in absorbance at 0.5 to 2X MIC measured every 30 mins for 5 hrs by spectrophotometry; assay type: subcellular
Staphylococcus aureus [9] = assay: Binding affinity to His-tagged recombinant Staphylococcus aureus PgsA expressed in Escherichia coli Rosetta DE3 at 5 uM incubated for 1 hr followed by UV irradiation for 20 mins by in-gel fluorescence scanning analysis; details: time 80.0 min
Staphylococcus aureus [10] = assay: Inhibition of PG biosynthesis in Staphylococcus aureus assessed as fold change in DgkB gene expression at 4 ug/ml incubated for 1 hr by qRT-PCR analysis relative to control; assay type: functional; details: dose 4.0 µg/ml
Staphylococcus aureus [11] = assay: Antibacterial activity against methicillin resistant Staphylococcus aureus ATCC 43300 persisters assessed as reduction in number of living bacteria at 24 to 40 ug/ml measured over 24 hrs by colony counting method; assay type: functional, organism-based; details: dose 24-40 µg/ml
Cell membrane [12] = assay: Induction of cell membrane disruption in methicillin resistant Staphylococcus aureus ATCC 43300 at 4 ug/ml incubated for 1 hr by transmission electron microscopic analysis; assay type: subcellular; details: dose 4.0 µg/ml
Cell membrane [13] = assay: Induction of cell membrane disruption in methicillin resistant Staphylococcus aureus ATCC 43300 assessed as loose cell wall at 4 ug/ml incubated for 1 hr by transmission electron microscopic analysis; details: dose 4.0 µg/ml
Cell membrane [14] = assay: Induction of cell membrane disruption in Staphylococcus aureus ATCC 25923 at 4 ug/ml incubated for 1 hr by transmission electron microscopic analysis; assay type: subcellular; details: dose 4.0 µg/ml
Cell membrane [15] = assay: Induction of cell membrane disruption in Staphylococcus aureus ATCC 25923 assessed as loose cell wall at 4 ug/ml incubated for 1 hr by transmission electron microscopic analysis; details: dose 4.0 µg/ml
Staphylococcus aureus [16] = assay: Inhibition of PG biosynthesis in Staphylococcus aureus assessed as fold change in PlsY gene expression at 4 ug/ml incubated for 1 hr by qRT-PCR analysis relative to control; assay type: functional; details: dose 4.0 µg/ml
Staphylococcus aureus [17] = assay: Antibacterial activity against methicillin resistant Staphylococcus aureus ATCC 43300 persisters assessed as eradication of colony formation at 24 to 40 ug/ml incubated for 6 hrs by colony counting method; assay type: functional, organism-based; details: dose 24-40 µg/ml
Staphylococcus aureus [18] = assay: Inhibition of PG biosynthesis in Staphylococcus aureus assessed as fold change in YpfP gene expression at 4 ug/ml incubated for 1 hr by qRT-PCR analysis relative to control; assay type: functional; details: dose 4.0 µg/ml
Staphylococcus aureus [19] = assay: Bacteriostatic activity against Staphylococcus aureus ATCC 25923 assessed as reduction in bacterial growth at 4 ug/ml incubated for 16 hrs by Kirby-Bauer test method; assay type: functional, organism-based; details: dose 4.0 µg/ml
Staphylococcus aureus [20] = assay: Antibacterial activity against Staphylococcus aureus ATCC 25923 assessed as reduction in bacterial growth incubated for 16 hrs by broth microdilution method; assay type: functional
Staphylococcus aureus [21] = assay: Inhibition of PG biosynthesis in Staphylococcus aureus assessed as fold change in PlsX gene expression at 4 ug/ml incubated for 1 hr by qRT-PCR analysis relative to control; assay type: functional; details: dose 4.0 µg/ml
Staphylococcus aureus [22] = assay: Resistance index, ratio of MIC for antibacterial activity against Staphylococcus aureus ATCC 25923 measured after 60 days of serial passage to MIC for antibacterial activity against Staphylococcus aureus ATCC25923 measured after 16 hrs; assay type: functional
Lipid bilayer = assay: Induction of pore formation in DOPC/DOPG large unilamellar vesicles assessed as calcein leakage at 0.5 to 2 times MIC measured for 30 mins by fluorescence based assay
Staphylococcus aureus [23] = assay: Bactericidal activity against in Staphylococcus aureus ATCC 25923 assessed as induction of bacterial death by measuring reduction in fluorescence intensity at 4 times MIC measured upto 90 mins by DiOC5 dye based flow cytometric analysis; assay type: functional, organism-based; details: time min <=90
Staphylococcus aureus [24] = assay: Bacteriostatic activity against Staphylococcus aureus ATCC 25923 assessed as reduction in bacterial growth at 4 ug/ml incubated for 2 hrs by colony counting method; assay type: functional, organism-based; details: dose 4.0 µg/ml
Staphylococcus aureus [25] = assay: Antibacterial activity against Staphylococcus aureus ATCC 25923 assessed as reduction in bacterial growth measured after 60 days of serial passage; assay type: functional; details: ATCC 25923, 1440 h, time 60 day
Staphylococcus aureus [26] = assay: Inhibition of PG biosynthesis in Staphylococcus aureus assessed as fold change in PlsC gene expression at 4 ug/ml incubated for 1 hr by qRT-PCR analysis relative to control; assay type: functional; details: dose 4.0 µg/ml

## COc1cc(/C=C/c2ccccc2F)c(C(=O)O)c(O)c1CC=C(C)C
Staphylococcus aureus [1]
  fold change (FC): 0.759
RAW264.7
  IC50: 62.6 µM
Staphylococcus aureus [2]
  fold change (FC): 0.663
Staphylococcus aureus [3]
  fold change (FC): 1.18
Cell membrane [4]
  Activity: Active
Staphylococcus aureus [5]
  Activity: Active
Cell membrane [6]
  Activity: Active
Staphylococcus aureus [7]
  fold change (FC): 0.558
Cell membrane [8]
  Activity: Active
Staphylococcus aureus [9]
  Activity: Active
Staphylococcus aureus [10]
  fold change (FC): 1.25
Staphylococcus aureus [11]
  Activity: Active
Cell membrane [12]
  Activity: Active
Cell membrane [13]
  Activity: Active
Cell membrane [14]
  Activity: Active
Cell membrane [15]
  Activity: Active
Staphylococcus aureus [16]
  fold change (FC): 1.58
Staphylococcus aureus [17]
  Activity: Active
Staphylococcus aureus [18]
  fold change (FC): 0.446
Staphylococcus aureus [19]
  Activity: Active
Staphylococcus aureus [20]
  MIC: 4 µg/mL (≈ 11.2 µM)
Staphylococcus aureus [21]
  fold change (FC): 0.577
Staphylococcus aureus [22]
  Ratio: 3
Lipid bilayer
  Activity: inactive
Staphylococcus aureus [23]
  Activity: Active
Staphylococcus aureus [24]
  Activity: Active
Staphylococcus aureus [25]
  MIC: 12 µg/mL (≈ 33.7 µM)
Staphylococcus aureus [26]
  fold change (FC): 1.99
